In ChEMBL document CHEMBL1201862, “PubChem BioAssay data set” (2004):
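Exposure lasted 48 hours, with cells grown in 96-well plates and compounds tested at five concentrations. The concentration for 50% growth inhibition is given as GI50.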 The source made the active and inactive calls. Cut-off read from the data, not from the text of the source: active = GI50 up to about 1.1 µM and inactive = higher.

What was measured:
Experiment in all cases: NCI anticancer screen, dose series, 48 h
BT-549 = tested on: BT-549
CAKI-1 = tested on: CAKI-1
DU-145 = tested on: DU-145
HCT-116 = tested on: HCT-116
Hs-578T = tested on: Hs-578T
IGROV-1 = tested on: IGROV-1
LOX IMVI = tested on: LOX IMVI
MDA-MB-231 = tested on: MDA-MB-231
NCI-H23 = tested on: NCI-H23
NCI-H460 = tested on: NCI-H460
OVCAR-3 = tested on: OVCAR-3
OVCAR-4 = tested on: OVCAR-4
PC-3 = tested on: PC-3
SF-295 = tested on: SF-295
SK-MEL-5 = tested on: SK-MEL-5
SK-OV-3 = tested on: SK-OV-3
SNB-19 = tested on: SNB-19
SR = tested on: SR
SW-620 = tested on: SW-620
UACC-62 = tested on: UACC-62

Measured: GI50

COC(=O)[C@@](NC(=O)OCc1ccccc1)([C@H](C)O)C(F)(F)F
inactive: BT-549 > 100 µM | CAKI-1 > 100 µM | DU-145 > 100 µM | HCT-116 > 100 µM | Hs-578T > 100 µM | IGROV-1 > 100 µM | LOX IMVI > 100 µM | MDA-MB-231 > 100 µM | NCI-H23 > 100 µM | NCI-H460 > 100 µM | OVCAR-3 > 100 µM | OVCAR-4 > 100 µM | PC-3 > 100 µM | SF-295 > 100 µM | SK-MEL-5 > 100 µM | SK-OV-3 > 100 µM | SNB-19 > 100 µM | SR 50.1 µM | SW-620 > 100 µM | UACC-62 > 100 µM

COC(=O)c1nc2c(C)c(O)c(O)c([C@H](C)CCC=C(C)C)c2o1
inactive: BT-549 37.6 µM | CAKI-1 23.8 µM | DU-145 65.5 µM | HCT-116 8.34 µM | Hs-578T 30.5 µM | IGROV-1 20.9 µM | LOX IMVI 43.2 µM | MDA-MB-231 45.1 µM | NCI-H23 28.1 µM | NCI-H460 46.5 µM | OVCAR-3 26.5 µM | OVCAR-4 30.1 µM | PC-3 26.6 µM | SF-295 25 µM | SK-MEL-5 13 µM | SK-OV-3 40.6 µM | SNB-19 38.5 µM | SR 7 µM | SW-620 39.5 µM | UACC-62 > 10 µM

Nc1ccccc1OCCCOc1ccccc1N
inactive: BT-549 > 100 µM | CAKI-1 > 100 µM | DU-145 > 100 µM | HCT-116 > 100 µM | Hs-578T > 100 µM | IGROV-1 > 100 µM | LOX IMVI > 100 µM | MDA-MB-231 > 100 µM | NCI-H23 > 100 µM | NCI-H460 > 100 µM | OVCAR-3 > 100 µM | OVCAR-4 > 100 µM | PC-3 > 100 µM | SF-295 > 100 µM | SK-MEL-5 78.3 µM | SK-OV-3 > 100 µM | SNB-19 > 100 µM | SR 88.5 µM | SW-620 > 100 µM | UACC-62 > 100 µM
